Data taken from patent US8106055B2, “Substituted amide compounds” (Gruenenthal GmbH, priority 2007, dated 2012).

Tests used:
[1] = target: T1, serotonin (5-HT) reuptake (Rattus norvegicus, UniProt P31652); experiment: Inhibition of serotonin (5HT) reuptake in synaptosomes from rat brain; format: biochemical; details: for 5-HT (inhibition of reuptake of serotonin, % inhibition): test concentration of 10 μM; for inhibition at 10 µM: read-out: 5-HT reuptake
T1 construct: synaptosomes are freshly isolated from areas of the rat brain; from tissue; host or cells: rat brain synaptosomes (P2 fraction)
Procedure, shortened: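 Compounds screened at 10 μM and reported as percent inhibition of serotonin uptake. Uptake measured in a freshly prepared P2 synaptosomal fraction from rat brain.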

[2] = target: T2, bradykinin 1 receptor (B1R) of the rat (Rattus norvegicus, UniProt P97583); experiment: Functional investigation on the rat bradykinin 1 receptor (B1R), Ca2+ FLIPR assay in CHO K1 rB1R cells; format: cell-based; details: test substance 10 μM, Ca2+ FLIPR, CHO K1 rB1R cells; for B1R Ant. r [10 μM] % Inhibition: B1R antagonism rat; for inhibition at 10 µM: CHO-K1, B1R antagonism rat, read-out: B1R Ant. r [10 μM] % Inhibition
T2 construct: expressed in transfected cells; host or cells: CHO K1 cells
T2 sequence (P97583 1-337): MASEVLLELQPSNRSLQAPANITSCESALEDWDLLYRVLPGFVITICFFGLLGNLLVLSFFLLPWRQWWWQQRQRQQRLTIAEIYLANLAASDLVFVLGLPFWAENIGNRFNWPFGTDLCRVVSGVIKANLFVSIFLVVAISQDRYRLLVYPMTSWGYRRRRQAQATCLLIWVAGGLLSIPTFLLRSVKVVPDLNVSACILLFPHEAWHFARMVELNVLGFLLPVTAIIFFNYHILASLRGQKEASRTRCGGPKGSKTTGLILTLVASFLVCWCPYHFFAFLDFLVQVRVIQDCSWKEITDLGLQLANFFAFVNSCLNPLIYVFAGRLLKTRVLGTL
Procedure, shortened: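 Fluo-4 Ca2+ readout, peak fluorescence. Stable CHO K1 transfectants; compound pre-incubated 10-20 min, then EC80 agonist—Lys-Des-Arg9-BK for hB1R, Des-Arg9-BK for rB1R. % inhibition vs maximal inhibition; IC50 from multiple concentrations, duplicate/triplicate, ≥2 independent runs.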

[3] = Table 2, test concentration 10 μM

T1 sequence (P31652 whole entry): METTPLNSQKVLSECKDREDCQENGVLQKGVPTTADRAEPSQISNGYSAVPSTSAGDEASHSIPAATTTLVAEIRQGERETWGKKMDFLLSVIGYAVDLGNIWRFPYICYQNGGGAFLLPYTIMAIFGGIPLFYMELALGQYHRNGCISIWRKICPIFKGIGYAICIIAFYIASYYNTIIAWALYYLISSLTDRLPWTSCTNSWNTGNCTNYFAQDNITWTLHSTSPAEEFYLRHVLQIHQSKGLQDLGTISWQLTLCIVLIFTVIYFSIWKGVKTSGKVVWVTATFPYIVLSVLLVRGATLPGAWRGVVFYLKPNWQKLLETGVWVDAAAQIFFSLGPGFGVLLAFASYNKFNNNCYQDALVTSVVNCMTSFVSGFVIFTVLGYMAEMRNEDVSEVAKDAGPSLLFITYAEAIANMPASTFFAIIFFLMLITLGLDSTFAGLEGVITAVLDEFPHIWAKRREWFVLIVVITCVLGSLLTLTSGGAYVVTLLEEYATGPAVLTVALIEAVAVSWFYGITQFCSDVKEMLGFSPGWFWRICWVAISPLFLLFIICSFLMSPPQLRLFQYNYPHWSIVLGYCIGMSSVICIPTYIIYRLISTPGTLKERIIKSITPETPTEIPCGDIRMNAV

Row | SMILES | 5-HT (inhibition of reuptake of serotonin, % inhibition) [1] | B1R Ant. r [10 μM] % Inhibition [2] | 5-HT reuptake [1, 3] | inhibition at 10 µM [1, 3] | inhibition at 10 µM [2]
1 | CN(C)C(c1cccs1)C1CCC(CCNC(=O)COC2CCCCC2N(C)S(=O)(=O)c2ccc(Cl)c(Cl)c2)CC1 (stereo not drawn) [Example 214] | 83% | 19% |  |  | 
2 | COc1cc(C)c(S(=O)(=O)N(C)CCOCC(=O)NC2CCC(C(c3ccccc3)N(C)C)CC2)c(C)c1 (stereo not drawn) [Example 239] | 78% | 97% |  |  | 
3 | CN(C)C(c1cccs1)C1CCC(CNC(=O)COC2CCN(S(=O)(=O)c3ccccc3)CC2)CC1 (stereo not drawn) [Example 276] | 93% | 14% |  |  | 
4 | COc1cc(C)c(S(=O)(=O)N(C)CCOCC(=O)NC2CCC(C(c3cccc(F)c3)N(C)C)CC2)c(C)c1 (stereo not drawn) [Example 228] | 85% | 99% |  |  | 
5 | COc1ccc(S(=O)(=O)N2CCCC2COCC(=O)NCCC2CCC(C(c3cccc(F)c3)N(C)C)CC2)cc1 (stereo not drawn) [Example 224] | 97% | 47% |  |  | 
6 | Cc1cc(C)c(S(=O)(=O)N2CCC(OCC(=O)NCCC3CCC(C(c4cccc(F)c4)N(C)C)CC3)C2)c(C)c1 (stereo not drawn) [Example 264] | 82% | 59% |  |  | 
7 | CCN(CCOCC(=O)NCC1CCC(C(c2ccccc2)N(C)C)CC1)S(=O)(=O)c1c(C)cc(OC)c(C)c1C (stereo not drawn) [Example 231] | 83% | 29% |  |  | 
8 | CN(C)C(c1cccc(F)c1)C1CCC(NC(=O)COCC2CCCN(S(=O)(=O)c3ccccc3)C2)CC1 (stereo not drawn) [Example 266] | 97% | 24% |  |  | 
9 | CN(C)C(c1ccc(Cl)cc1)C1CCC(CNC(=O)COC2CCCCC2N(C)S(=O)(=O)c2ccc(Cl)c(Cl)c2)CC1 (stereo not drawn) [Example 269] | 87% | −3% |  |  | 
10 | CN(C)C(c1ccc(Cl)cc1)C1CCC(CNC(=O)COCCN(C)S(=O)(=O)c2ccc(F)cc2)CC1 (stereo not drawn) [Example 263] | 102% | 32% |  |  | 
11 | COc1cc(C)c(S(=O)(=O)N2CCC(OCC(=O)NCCC3CCC(C(c4cccc(F)c4)N(C)C)CC3)CC2)c(C)c1C (stereo not drawn) [Example 232] | 98% | 5% |  |  | 
12 | CN(C)C(c1cccc(F)c1)C1CCC(CNC(=O)COC2CCN(S(=O)(=O)c3ccc(Cl)cc3)C2)CC1 (stereo not drawn) [Example 258] | 84% | 12% |  |  | 
13 | CN(C)C(c1cccc(F)c1)C1CCC(CNC(=O)COC2CCN(S(=O)(=O)c3ccc(F)cc3)C2)CC1 (stereo not drawn) [Example 275] | 80% | 17% |  |  | 
14 | CN(C)C(c1ccccc1)C1CCC(CNC(=O)COCC2CCCN(S(=O)(=O)c3ccccc3)C2)CC1 (stereo not drawn) [Example 129, N((4((dimethylamino)(phenyl)methyl)cyclohexyl)methyl)-2-((1-(phenylsulfonyl)piperidin-3-yl)methoxy)acetamide] | 95% | 0% |  |  | 
15 | COc1ccc(S(=O)(=O)N2CCCCC2CCOCC(=O)NC2CCC(C(c3ccc(F)cc3)N(C)C)CC2)cc1 (stereo not drawn) [Example 212] | 92% | 41% |  |  | 
16 | COc1cc(C)c(S(=O)(=O)N2CCC(OCC(=O)NCCC3CCC(C(c4cccc(F)c4)N(C)C)CC3)C2)c(C)c1C (stereo not drawn) [Example 253] | 96% | 18% |  |  | 
17 | COc1ccc(S(=O)(=O)N(C)CCOCC(=O)NC2CCC(C(c3cccc(F)c3)N(C)C)CC2)cc1 (stereo not drawn) [Example 250] | 84% | 38% |  |  | 
18 | Cc1cc(C)c(S(=O)(=O)N(C)CCOCC(=O)NC2CCC(C(c3cccs3)N(C)C)CC2)c(C)c1 (stereo not drawn) [Example 235] | 86% | −8% |  |  | 
19 | CN(C)C(c1cccc(F)c1)C1CCC(CCNC(=O)COCC2CCCN2S(=O)(=O)c2ccc(Cl)c(Cl)c2)CC1 (stereo not drawn) [Example 202] | 98% | −15% |  |  | 
20 | Cc1ccc(S(=O)(=O)N(C)CCOCC(=O)NCC2CCC(C(c3ccc(Cl)cc3)N(C)C)CC2)cc1 (stereo not drawn) [Example 273] | 91% | 37% |  |  | 

Row | SMILES | 5-HT (inhibition of reuptake of serotonin, % inhibition) [1] | B1R Ant. r [10 μM] % Inhibition [2] | 5-HT reuptake [1, 3] | inhibition at 10 µM [1, 3] | inhibition at 10 µM [2]
21 | CN(C)C(c1ccccc1)C1CCC(NC(=O)COCC2CCCN2S(=O)(=O)c2c(Cl)cc(Cl)cc2Cl)CC1 (stereo not drawn) [Example 613, N-[4-(Dimethylaminophenylmethyl)-cyclohexyl]-2-[1-(2,4,6-trichlorobenzenesulfonyl)-pyrrolidin-2-ylmethoxy]-acetamide] |  | 34% | 62 % inhibition |  | 
22 | COc1cc(C)c(S(=O)(=O)N2CCN(CCOCC(=O)NC3CCC(C(c4ccc(F)cc4)N(C)C)CC3)CC2)c(C)c1C (stereo not drawn) [Example 222] | 92% | 10% |  |  | 
23 | CN(C)C(c1cccc(F)c1)C1CCC(NC(=O)COC2CCCN(S(=O)(=O)c3ccccc3)C2)CC1 (stereo not drawn) [Example 277] | 93% | 4% |  |  | 
24 | CN(C)C(c1cccc(F)c1)C1CCC(CNC(=O)COCCN(C)S(=O)(=O)c2ccc(F)cc2)CC1 (stereo not drawn) [Example 229] | 89% | 8% |  |  | 
25 | CN(C)C(c1ccccc1)C1CCC(NC(=O)COC2CCCN(S(=O)(=O)c3c(Cl)cc(Cl)cc3Cl)C2)CC1 (stereo not drawn) [Example 608, N-[4-(dimethylaminophenylmethyl)-cyclohexyl]-2-[1-(2,4,6-trichlorobenzenesulfonyl)-piperidin-3-yloxy]-acetamide] |  |  |  | 81% | 34%
26 | COc1cc(C)c(S(=O)(=O)N(CCOCC(=O)NCC2CCC(C(c3ccccc3)N(C)C)CC2)Cc2ccccc2)c(C)c1C (stereo not drawn) [Example 201] | 89% | 7% |  |  | 
27 | COc1cc(C)c(S(=O)(=O)N2CCN(CCOCC(=O)NCC3CCC(C(c4cccc(F)c4)N(C)C)CC3)CC2)c(C)c1C (stereo not drawn) [Example 223] | 96% | −5% |  |  | 
28 | COc1ccc(S(=O)(=O)N2CCCCC2CCOCC(=O)NCC2CCC(C(c3cccc(F)c3)N(C)C)CC2)cc1 (stereo not drawn) [Example 203] | 93% | 55% |  |  | 
29 | CN(C)C(c1ccc(F)cc1)C1CCC(NC(=O)COC2CCCCC2N(C)S(=O)(=O)c2ccc(Cl)c(Cl)c2)CC1 (stereo not drawn) [Example 256] | 84% | 1% |  |  | 
30 | CN(C)C(c1ccc(F)cc1)C1CCC(CNC(=O)COCC2CCCN2S(=O)(=O)c2ccc(Cl)c(Cl)c2)CC1 (stereo not drawn) [Example 267] | 94% | −13% |  |  | 
31 | CN(C)C(c1ccc(F)cc1)C1CCC(CCNC(=O)COC2CCCCC2N(C)S(=O)(=O)c2ccc(Cl)c(Cl)c2)CC1 (stereo not drawn) [Example 244] | 88% | −5% |  |  | 
32 | CN(C)C(c1cccc(F)c1)C1CCC(CNC(=O)COC2CCN(S(=O)(=O)c3ccc(Cl)cc3Cl)C2)CC1 (stereo not drawn) [Example 225] | 85% | 17% |  |  | 
33 | Cc1ccc(S(=O)(=O)N(C)CCOCC(=O)NC2CCC(C(c3cccc(F)c3)N(C)C)CC2)cc1 (stereo not drawn) [Example 226] | 91% | 24% |  |  | 
34 | COc1ccc(S(=O)(=O)N2CCCC2COCC(=O)NC2CCC(C(c3cccc(F)c3)N(C)C)CC2)cc1 (stereo not drawn) [Example 268] | 92% | 25% |  |  | 
35 | COc1ccc(S(=O)(=O)N2CCCCC2COCC(=O)NC2CCC(C(c3cccs3)N(C)C)CC2)cc1 (stereo not drawn) [Example 243] | 73% | 27% |  |  | 
36 | Cc1ccc(S(=O)(=O)N2CCC(OCC(=O)NCCC3CCC(C(c4cccs4)N(C)C)CC3)C2)cc1 (stereo not drawn) [Example 272] | 88% | 32% |  |  | 
37 | O=C(COCCN(C1CC1)S(=O)(=O)c1c(Cl)cc(Cl)cc1Cl)NC1CCC(C(c2ccccc2)N2CCCC2)CC1 (stereo not drawn) [Example 603, 2-{2-[cyclopropyl-(2,4,6-trichlorobenzenesulfonyl)-amino]-ethoxy}-N-[4-(phenylpyrrolidin-1-ylmethyl)-cyclohexyl]-acetamide] |  |  |  | 74% | 85%
38 | CN(C)C(c1cccc(F)c1)C1CCC(NC(=O)COCCN(C)S(=O)(=O)c2ccc(OC(F)(F)F)cc2)CC1 (stereo not drawn) [Example 246] | 91% | 15% |  |  | 
39 | CN(C)C(c1ccccc1)C1CCC(CNC(=O)COC2CCN(S(=O)(=O)c3ccc(F)cc3)C2)CC1 (stereo not drawn) [Example 219] | 96% | 14% |  |  | 
